From patent US9119395B2, “Active substance mixtures comprising OPP and amines, microbicidal agents” (LANXESS Deutschland GmbH, priority 2005, dated 2015)

Key:
Pseudomonas fluorescens = assay: Minimum inhibitory concentration and synergism (Kull synergistic index) of OPP/AMINE 1 combinations; type: cell-based; conditions: compound applied on its own (QA/QB)
Source text: The observed synergism of the mixtures according to the invention can be determined by the following mathematical approach (cf. F. C. Kull, P. C. Elisman, H. D. Sylwestrowicz and P. K. Mayer, Appl. Microbiol, 9, 538 (1961):
[formula] where • Qa=the amount of component A in the active compound mixture required to achieve the desired effect, i.e. no microbial growth, • QA=the amount of component A which, applied on its own, suppresses the growth of the microorganisms, • Qb=the amount of component B in the active compound mixture which suppresses the growth of the microorganisms, • Qb=the amount of component B which, applied on its own, suppresses the growth of the microorganisms.
A synergistic index of SI<1, in accordance with the above formula, indicates a synergistic effect for the active compound mixture.
The minimum inhibitory concentration of the active compound combinations listed in Table 1 were examined using the test germ Pseudomonas fluorescens

[1] = tested on: microorganism mixture: Pseudomonas aeruginosa, Pseudomonas fluorescens, Pseudomonas oleovorans, Pseudomonas rubescens, Pseudomonas stutzeri, Alcalaigenes …; assay: Microbiological preservation stress test in a chalk suspension; type: cell-based; conditions: 60° C. for 3 days before test, weekly contamination
Source text: The preserving action of an active compound mixture according to the invention was examined in a chalk suspension using a preservation stress test.
The microbiological stress test examines the susceptibility of water-based systems to microbial attack and the action of preservatives. To this end, the preservatives are incorporated in defined concentrations into the water-based systems. To simulate praxis-like conditions, depending on the medium to be examined, a storage at elevated temperatures (for example 7 days at 40° C., 3 days at 60° C. or the like) may be carried out prior to the actual preservation test to evaluate the preservatives to be examined under conditions which are as realistic as possible. After the preparations have been carried out, contamination with microorganisms of a defined species is carried out at weekly intervals over a test period of at most 6 weeks. 2-3 and 7 days after each contamination, by counting the number of germs, it is established whether a complete kill or at least inhibition of propagation of the bacteria introduced has been achieved, compared to the unpreserved control samples.
The contamination source used for the examination in the stress test was the following microorganism mixture:
Very good activity is achieved when, even after 6 contamination cycles, the reserved samples effect a kill of the microorganisms introduced.
Using a chalk suspension (proportion of solids 70-75%), a preservation stress test according to the above scheme was carried out. After incorporation of the respective biocidally active compounds at the stated concentrations, the samples were exposed to thermal stress at 60° C. for 3 days. The samples pre-treated in this manner were then used for carrying out the microbiological stress test.

Oc1ccccc1-c1ccccc1 [OPP, o-phenylphenol]
spoilt: Week 2 ([1]; 150 ppm) | Week 3 ([1]; 150 ppm) | Week 4 ([1]; 150 ppm) | Week 5 ([1]; 150 ppm) | Week 6 ([1]; 150 ppm) | Week 5 ([1]; 200 ppm) | Week 6 ([1]; 200 ppm)
500 (=QA) ppm: Amount of pure active compounds required to suppress growth (Pseudomonas fluorescens)
ok: Week 1 ([1]; 150 ppm) | Week 1 ([1]; 200 ppm) | Week 2 ([1]; 200 ppm) | Week 3 ([1]; 200 ppm) | Week 4 ([1]; 200 ppm)

CCCCCCCCCCCCN(CCCN)CCCN [“AMINE 1”, bis(3-aminopropyl)dodecylamine]
ok: Week 1 ([1]; 80 ppm) | Week 1 ([1]; 160 ppm) | Week 2 ([1]; 160 ppm) | Week 3 ([1]; 160 ppm)
50 (=QB) ppm: Amount of pure active compounds required to suppress growth (Pseudomonas fluorescens)
spoilt: Week 2 ([1]; 80 ppm) | Week 3 ([1]; 80 ppm) | Week 4 ([1]; 80 ppm) | Week 5 ([1]; 80 ppm) | Week 6 ([1]; 80 ppm) | Week 4 ([1]; 160 ppm) | Week 5 ([1]; 160 ppm) | Week 6 ([1]; 160 ppm)
